{
  "source": "ChEMBL document CHEMBL5725872",
  "about": "“Benzofuran compounds for the treatment of hepatitis C” (2018)",
  "experiment": "HCV Replicon Luciferase Assay: To evaluate compound efficacy, titrated compounds were transferred to sterile 384-well tissue culture treated plates, and the plates were seeded with HCV replicon cells (50 μL at a density of 2.4×10^3 cells/well) in DMEM containing 4% FBS (final DMSO concentration at 0.5%). After 3 days incubation at 37° C., cells were analyzed for Renilla Luciferase activity using the EnduRen substrate (Promega cat #E6485) according to the manufacturer's directions. Briefly, the EnduRen substrate was diluted in DMEM and then added to the plates to a final concentration of 7.5 μM. The plates were incubated for at least 1 h at 37° C. then read on a Viewlux Imager (PerkinElmer) using a luminescence program. The 50% effective concentration (EC50) was calculated using the four-parameter logistic Formula noted above. To assess cytotoxicity of compounds, Cell Titer-Blue (Promega) was added to the EnduRen-containing plates and incubated for at least 4 hrs at 37° C. The fluorescence signal from each well was read using a Viewlux Imager. All CC50 values were calculated using the four-parameter logistic Formula.",
  "data": [
    {"smiles": "CNC(=O)c1c(-c2ccc(F)cc2)oc2cc(N(CCCF)S(C)(=O)=O)c(-c3cccc(C(=O)N[C@H](C)C(F)(F)F)c3)cc12", "values": [
      {"measurement": "EC50", "setting": "72 h", "value": "< 100", "unit": "nM"}
    ]},
    {"smiles": "CNC(=O)c1c(-c2ccc(F)cc2)oc2cc(N(CCF)S(C)(=O)=O)c(-c3cccc(C(=O)N4CC[C@H](O)C4)c3)cc12", "values": [
      {"measurement": "EC50", "setting": "72 h", "value": "> 1000", "unit": "nM"}
    ]},
    {"smiles": "CNC(=O)c1c(-c2ccc(F)cc2)oc2cc(N(C(F)F)S(C)(=O)=O)c(-c3cccc(C(=O)O)c3)cc12", "values": [
      {"measurement": "EC50", "setting": "72 h", "value": "> 10000", "unit": "nM"}
    ]},
    {"smiles": "CNC(=O)c1c(-c2ccc(F)cc2)oc2cc(N(CCCF)S(C)(=O)=O)c(-c3cccc(C(=O)NC(C)(C)C)c3)cc12", "values": [
      {"measurement": "EC50", "value": "< 100", "unit": "nM"},
      {"measurement": "EC50", "setting": "72 h", "value": "< 100", "unit": "nM"}
    ]},
    {"smiles": "CNC(=O)c1c(-c2ccc(F)cc2)oc2cc(N(CCCF)S(C)(=O)=O)c(-c3cccc(C(=O)N[C@@H](C)C(F)(F)F)c3)cc12", "values": [
      {"measurement": "EC50", "setting": "72 h", "value": "< 100", "unit": "nM"}
    ]},
    {"smiles": "CNC(=O)c1c(-c2ccc(F)cc2)oc2cc(N(CCF)S(C)(=O)=O)c(-c3cccc(C(=O)NC(C)(C)C)c3)cc12", "values": [
      {"measurement": "EC50", "value": "< 100", "unit": "nM"},
      {"measurement": "EC50", "setting": "72 h", "value": "< 100", "unit": "nM"}
    ]},
    {"smiles": "CC[C@H](NC(=O)c1cccc(-c2cc3c(C(=O)NC)c(-c4ccc(F)cc4)oc3cc2N(CCF)S(C)(=O)=O)c1)C1CC1", "values": [
      {"measurement": "EC50", "setting": "72 h", "value": "< 100", "unit": "nM"}
    ]},
    {"smiles": "CNC(=O)c1c(-c2ccc(F)cc2)oc2cc(N(CCF)S(C)(=O)=O)c(-c3cccc(C(=O)N4CCC[C@H]4CO)c3)cc12", "values": [
      {"measurement": "EC50", "setting": "72 h", "value": "100 to 1000", "unit": "nM"}
    ]}
  ]
}
